Patent US6114327A, “Anti-viral compounds” (Eli Lilly and Company, priority 1999, dated 2000)
In brackets after ≈: the same amount, converted by molar mass.

System: rhinovirus, HRV-14
Assay: Anti-picornaviral plaque reduction assay
Assay type: cell-based
Settings: Rhinovirus B, HRV14, Table 1, 50% inhibition of plaque formation, BSC-1 or Hela cells, 120 hours at 32° C., trans isomer

| Compound | IC50 [µg/mL] |
| --- | --- |
| CS/C=C(\c1ccccc1)c1ccc2nc(N)n(S(=O)(=O)C(C)C)c2c1 [9 (parent), reference compound] | 2.58 (≈ 6.66 µM) |
| CC(C)S(=O)(=O)n1c(N)nc2ccc(/C(=C/[S+](C)[O-])c3ccccc3)cc21 (centres unmarked) [10 (parent), reference compound] | 3.52 (≈ 8.72 µM) |
| COC(=O)/C=C(\c1ccccc1)c1ccc2nc(N)n(S(=O)(=O)C(C)C)c2c1 [12 (parent), reference compound] | 0.05 (≈ 0.125 µM) |
| CC(C)S(=O)(=O)n1c(N)nc2ccc(/C(=N/O)c3ccccc3)cc21 [13 (parent), reference compound] | 0.05 (≈ 0.139 µM) |
| CC(C)S(=O)(=O)n1c(N)nc2ccc(/C(=C/S(C)(=O)=O)c3cccc(F)c3F)cc21 [Example 8, Trans 1-Isopropylsulfonyl-2-Amino-6-(1-[2,3-Difluorophenyl]-2-Methylsulfonylethen-1-yl)benzimidazole] | 0.05 (≈ 0.11 µM) |
| CS/C=C(/c1ccc2nc(N)n(S(=O)(=O)C(C)C)c2c1)c1cccc(F)c1F [Example 9, 1-Isopropylsulfonyl-2-Amino-6-(1-[2,3-Difluorophenyl]-2-Methylsulfidoethen-1-yl)benzimidazole] | 0.072 (≈ 0.17 µM) |
| CC(C)S(=O)(=O)n1c(N)nc2ccc(/C(=C/[S+](C)[O-])c3cccc(F)c3F)cc21 (centres unmarked) [Example 10] | 0.394 (≈ 0.896 µM) |
| CC(=O)/C=C(/c1ccc2nc(N)n(S(=O)(=O)C(C)C)c2c1)c1cccc(F)c1F [Example 11, Trans 1-Isopropylsulfonyl-2-Amino-6-(1-[2,3-Difluorophenyl]-2-(1-Oxoeth-1-yl)ethen-1-yl)benzimidazole] | 0.048 (≈ 0.114 µM) |
| COC(=O)/C=C(/c1ccc2nc(N)n(S(=O)(=O)C(C)C)c2c1)c1cccc(F)c1F [Example 12] | 0.052 (≈ 0.119 µM) |
| CC(C)S(=O)(=O)n1c(N)nc2ccc(/C(=N/O)c3cccc(F)c3F)cc21 [Example 13, Trans 1-Isopropylsulfonyl-2-Amino-6-(1-[2,3-Difluorophenyl]oximyl)benzimidazole] | 0.051 (≈ 0.129 µM) |
| CC(=O)/C=C(\c1ccc(F)cc1)c1ccc2nc(N)n(S(=O)(=O)C(C)C)c2c1 [Example 14, 1-Isopropylsulfonyl-2-Amino-6-(1-[4-Fluorophenyl]-2-(1-Oxoeth-1-yl)ethen-1-yl)benzimidazole] | 0.21 (≈ 0.523 µM) |
